Data published in PMC4002121, “Trimethylation of Histone H3 Lysine 36 by Human Methyltransferase PRDM9 Protein” (The Journal of Biological Chemistry, 2014).
Entries after “also recorded” stand apart in the source; their conditions may differ.

Experiments:
PRDM9 [1] = molecular target: T1, PRDM9 (Homo sapiens, UniProt Q9NQV7); assay: PRDM9 substrate specificity, radioactivity-based histone peptide methylation assay; format: biochemical; conditions: 10 μM biotinylated peptide, 200 μM AdoMet, 1 nM PRDM9, 10 mM Tris-HCl pH 8.5, 0.01% Triton X-100, 10 mM DTT, 30 min, 23 °C; n = 4
T1 construct: The wild-type PRDM9 gene (amino acids 195–385) was amplified by PCR; His tag (cleaved yes); made in house; host or cells: E. coli BL21(DE3)pRARE2-V2R
T1 sequence (Q9NQV7 195-385): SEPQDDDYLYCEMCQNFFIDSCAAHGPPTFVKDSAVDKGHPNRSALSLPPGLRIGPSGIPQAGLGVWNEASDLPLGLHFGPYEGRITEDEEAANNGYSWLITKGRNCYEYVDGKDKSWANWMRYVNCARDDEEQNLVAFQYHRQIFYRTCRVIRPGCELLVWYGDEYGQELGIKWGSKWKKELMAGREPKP
Procedure: In this assay [^3H]AdoMet (PerkinElmer Life Sciences; catalog number NET155V250UC) was used as a methyl donor to methylate biotinylated histone peptide substrates. […] Samples were incubated for 30 min at 23 °C and the reaction was quenched by addition of 20 μl of 7.5 M guanidinium hydrochloride followed by addition of 160 μl of 20 mM Tris-HCl buffer, pH 8.0. Samples were added to wells of a streptavidin/scintillant-coated microplate (FlashPlate® PLUS; PerkinElmer Life Sciences). Biotinylated peptides would be captured in each well through their interaction with streptavidin, thereby bringing any incorporated [^3H]methyl in proximity of scintillant.
FIGURE 1. […] Data are presented as mean ± S.D. from four experiments.

PRDM9 [2] = molecular target: T1, PRDM9; assay: Assay optimization: effect of pH, salt and additives on PRDM9 activity; format: biochemical
Procedure: Samples were incubated for 1 h at 23 °C and reactions were quenched by addition of 20 μl of 7.5 M guanidinium hydrochloride followed by addition of 160 μl of 20 mM Tris-HCl buffer, pH 8.0. Samples were added to wells of a streptavidin/scintillant-coated microplate (FlashPlate® PLUS: PerkinElmer Life Sciences).
FIGURE 3.

sterile mouse hybrids = conditions: via baculovirus; cited from earlier work
Description: PRDM9 is a PR domain-containing protein with multiple zinc fingers that catalyze trimethylation of H3K4 ([28]). It is a meiosis-specific protein that has been reported to control activation of the short highly recombinogenic segments called recombination hot spots ([50]). The H3K4me3 mark is often associated with transcriptional activation ([51], [52]) and DNA repair ([53]). This methyl mark is also associated with recombination hot spot initiation in yeast and mice ([35], [36]) where double strand breaks occur prior to crossover events. However, H3K4me3 marks associated with hot spots are dis ...

HEK293 cells = assay: H3K4 and H3K36 methylation in HEK293 cells overexpressing PRDM9, immunoblotting; format: cell-based, human; conditions: normalized to total H3
Procedure: A FLAG-tagged control vector or FLAG-tagged PRDM9 construct were transfected into HEK293 cells using GeneJuice (Novagen). Transfected cells were serum-deprived prior to lysis in 50 mM Tris-HCl, 400 mM NaCl, 1 mM EDTA, 0.1% SDS, and 1% Triton X-100 supplemented with protease inhibitors. 30 μg of total cell lysate were processed for Western blotting and immunoblotted using specific antibodies to monitor the levels of H3K36me1 (Abcam, ab9048), H3K36me2 (Cell signaling Technology, 2901), H3K36me3 (Cell Signaling Technology, number 9763), H3K4me1 (Cell Signaling Technology, 9723), H3K4me2 (Abcam, ab32356), H3K4me3 (Cell Signaling Technology, number 9727S), and total H3 (Abcam, ab10799). The transfection efficiency of FLAG-PRDM9 was controlled by using an anti-FLAG antibody (FLAG M2 monoclonal, Sigma). Membrane bands were visualized using LiCor IRDye, 680RD anti-rabbit and 800CW anti-mouse secondary antibodies.
FIGURE 8. Trimethylation of H3K4 and H3K36 by PRDM9 in cells. […] Methylation levels of Lys-4 and Lys-36 were quantified and normalized to their respective total H3 levels. FLAG-PRDM9-transfected samples were normalized to samples transfected with FLAG Control vector. IB, immunoblot; CTL, control.

PRDM9 [3] = molecular target: T1, PRDM9; assay: Screening PRDM9 against known histone methyltransferase inhibitor library; format: biochemical; conditions: 2.5 μM H3K36me2 peptide, 62 μM AdoMet, 1 nM PRDM9, 10 mM Tris-HCl pH 8.5, 10 mM DTT, 0.01% Triton X-100, 1% DMSO, 30 min, 23 °C; triplicate
Procedure: The Z-factor was determined to ensure the optimized assay was amenable to high-throughput screening in a 384-well format ([46]). […] PRDM9 was then screened against a small library of known histone methyltransferase inhibitors using H3K36me2 as substrate under optimized assay conditions. In this assay, 1 nM PRDM9 was incubated with 2.5 μM H3K36me2 peptide, 62 μM AdoMet in a reaction buffer (10 mM Tris-HCl, pH 8.5, 10 mM DTT, 0.01% Triton X-100) along with compounds ranging in concentrations from 0 to 100 μM, with a final DMSO concentration of 1%. Reactions were incubated at 23 °C for 30 min. The IC50 value was determined for suramin using SigmaPlot.
FIGURE 5. […] Experiments were performed in triplicate as described under “Experimental Procedures.”

PRDM9 [4] = molecular target: T1, PRDM9; assay: Isothermal titration calorimetry (ITC) binding to PRDM9; conditions: AdoMet 1 mM injected into 50 μM PRDM9, 25 °C, 20 mM Tris-HCl pH 8.5, one-binding site model
Procedure: Purified PRMD9 was dialyzed overnight in 20 mM Tris-HCl buffer, pH 8.5. […] ITC titrations were performed on a VP-ITC Micro Calorimeter from GE Healthcare at 25 °C by using 10-μl injections with a total of 25 injections. Data were fitted with a one-binding site model using Microcal Origin software.
FIGURE 7. […] Experiments were performed in duplicate.

PRDM9 [5] = conditions: cited from earlier work
Description: Although PRDM9 H3K4 methyltransferase activity has been previously reported ([28]), to our knowledge its activity and substrate specificity have not been fully characterized. […] Our binding data also indicated tight H3K4 peptide binding (low micromolar). Previously, Hayashi et al. ([28]) reported that GST-PRDM9 specifically catalyzed met ...

[6] = H3-(1–25) substrate 10 μM, 40 μM AdoMet, 100 nM PRDM9, 10 mM Tris-HCl pH 8.5, 1 h, 23 °C, n = 4
[7] = H3-(1–25) substrate, 10 mM Tris-HCl pH 8.5

Compound: H3K36A: H3-(21–44) peptide with Lys-36 mutated to alanine
- PRDM9 methyltransferase activity with substrate (in words) (PRDM9 [1]): not when Lys-36 was trimethylated or mutated to alanine

Compound: K4AK9A: K4AK9A mutant of H3-(1–25) peptide
- PRDM9 methyltransferase activity with substrate (in words) (PRDM9 [1]): No activity

Compound: K4A: K4A mutant of H3-(1–25) peptide
- PRDM9 methyltransferase activity with substrate (in words) (PRDM9 [1]): No activity

Compound: O[C@@H](CS)[C@@H](O)CS [DTT]
- effect on PRDM9 activity (in words) (PRDM9 [2]; [6]): increase in enzyme activity
- concentration of maximal PRDM9 activity (reducing agent) (PRDM9 [2]; [7]): 10 mM

Compound: [Cl-].[Na+] [NaCl]
- NaCl concentration above which enzyme activity was abolished (PRDM9 [2]; [6]): above 125 mM
- effect on PRDM9 activity (in words) (PRDM9 [2]; [6]): sharp decrease in activity with increasing NaCl concentrations

Compound: C[S+](C)[O-] [DMSO, dimethyl sulfoxide]
- effect on PRDM9 activity (in words) (PRDM9 [2]; [6]): maintained high levels of activity at all concentrations of DMSO
- DMSO concentration of maximum PRDM9 activity (PRDM9 [2]; [7]): 0.16%

Compound: PRDM9: PR domain-containing protein 9, histone methyltransferase; FLAG-tagged in cells, residues 195–385 in vitro
- effect on sterile phenotype of mouse hybrids (in words) (sterile mouse hybrids): rescued the sterile phenotype
- mono- or dimethylation of H3K4 and H3K36 in cells (in words) (HEK293 cells; HEK293 cells overexpressing PRDM9): not mono- or dimethylation of either mark
- trimethylation of H3K4 and H3K36 in cells (in words) (HEK293 cells; HEK293 cells transfected with FLAG-PRDM9 vs FLAG control vector): significant increase in trimethylation of H3K4 and H3K36; also recorded: significant increase in H3K36 trimethylation as well as H3K4 trimethylation

Compound: Cc1ccc(C(=O)Nc2ccc(S(=O)(=O)O)c3cc(S(=O)(=O)O)cc(S(=O)(=O)O)c23)cc1NC(=O)c1cccc(NC(=O)Nc2cccc(C(=O)Nc3cc(C(=O)Nc4ccc(S(=O)(=O)O)c5cc(S(=O)(=O)O)cc(S(=O)(=O)O)c45)ccc3C)c2)c1 [suramin]
- IC50 (PRDM9 [3]): 4.1 ± 0.1 µM

Compound: Triton X-100
- effect on PRDM9 activity (in words) (PRDM9 [2]; [6]): Higher concentrations of Triton X-100 up to 0.25% did not further increase the activity
- Triton X-100 concentration that dramatically improved signal to noise ratio (PRDM9 [2]; concentrations as low as, H3-(1–25) substrate, 10 mM Tris-HCl pH 8.5): ≥ 0.004%

Compound: C[S+](CC[C@H](N)C(=O)[O-])C[C@H]1O[C@@H](n2cnc3c(N)ncnc32)[C@H](O)[C@@H]1O (stereo partly shown) [AdoMet, S-adenosylmethionine]
- Kd (PRDM9 [4]): 18.6 µM

Compound: O=C(O)CCP(CCC(=O)O)CCC(=O)O [TCEP, Tris(2-carboxyethyl)phosphine]
- effect on PRDM9 activity (in words) (PRDM9 [2]; [6]): sharp decrease in activity at increasing TCEP concentrations
- concentration of maximal PRDM9 activity (reducing agent) (PRDM9 [2]; [7]): 0.6 mM

Compound: H3-(26–45): histone H3-(26–45) peptide on a peptide array
- binding of PRDM9 to peptide on a peptide array (in words) (PRDM9 [5]): Binding
